Reference: patent US8420859B2, “Formulations” (Syngenta Limited, priority 2006, dated 2013)

How the values were obtained:
[1] = tested on: amaranthus retroflexus (AMARE), alopecurus myosuorides (ALOMY), chenopodium album (CHEAL) and digitaria sanguinalis (DIGSA); assay: Phytotoxic damage to young plants sprayed with solvent; assay type: in vivo; settings: for Observed damage with solvent and Tween 20: solvent 1% w/w plus 0.5% Tween 20, 2500 litres per hectare
Text: Formulations that are applied to crop plants can often lead to phytotoxic damage. This damage may take the form of the formation of necrotic spots where sprayed formulation has landed on leaf surfaces or it may take the form of chlorosis or larger scale damage to the plant such as dessication and death. In order to assess the safety of solvents to plant species they were sprayed at high usage rates and high water volumes onto very sensitive, young plants.
The plant species amaranthus retroflexus (AMARE), alopecurus myosuorides (ALOMY), chenopodium album (CHEAL) and digitaria sanguinalis (DIGSA) were grown from seed under glass house conditions until they reached the first leaf stage. A solvent was dissolved in distilled water at a rate of 1% w/w and sprayed onto the plants at a rate of 2500 litres per hectare using a laboratory track sprayer. The plants were maintained in the glasshouse for a period of 2 weeks in order to observe any effects on the plants. Untreated plants were grown and kept under the same conditions as a direct comparison to the treated samples. A second set of identical plants was also sprayed with the novel solvent however in this case 0.5% of the commercial surfactant Tween 20 (T) was also added to the spray solution. In this experiment control plants for comparison were also sprayed with 0.5% Tween 20 but not with the solvent. Plants were examined after 1, 2, 6, 7, 9 and 13 days to try to find evidence of damage to the treated plants. All experiments were carried out in duplicate.

[2] = Solubility of cyproconazole in solvent (saturated solution, HPLC); assay type: physicochemical
Protocol: A sample of a solvent (200 microlitres) was added to a 4 ml volume glass vial. The pesticide cyproconazole was added to the vial and shaken to allow thorough mixing. The vial was left to equilibrate at 25° C. for 24 hours after which time it was examined visually. If the solid had dissolved a further quantity of cyproconazole was added, the vial shaken and then left for another 24 hours. This process was repeated until a saturated solution had formed after which time the vial was left to equilibrate for one week. The glass vial was thoroughly shaken using a laboratory Whirlimixer™ (T) (Fisons Scientific Instruments Limited), once per day, during this period. After this time the sample was centrifuged, the supernatant was sampled and analysed by HPLC with reference to a known weight of pure cyproconazole, in order to determine the concentration of cyproconazole in solution.

daphnia = assay: Daphnia screening at 100 mg/l, immobility over 24 and 48 hours; assay type: in vivo; settings: single concentration 100 mg/l, 18-19° C., four replicates; for EC50: 48 h
Protocol: Daphnia screening is commonly carried out to assess the inherent toxicity of chemicals. In this test five daphnia were placed in a beaker full of water held between 18 and 19° C. A lactamide chemical of interest was introduced to a concentration of 100 mg/l and the daphnia were monitored over 24 and 48 hours. Any daphnia which became immobile were recorded and the number was used for the assessment. If less than half of the daphnia were immobile after 48 hours the EC50 (48 hours) figure was classified as being >100 mg/l [otherwise, it would be less than or equal to 100 mg/l]. The lactamides of Table 6 were tested and their EC50 figures are tabulated (each experiment was replicated four times and in fact in all these tests none of the daphnia died): […]

skin = assay: SIFT (Skin Integrity Function Test): electrical resistance of skin after exposure
Text: Skin irritation and damage can be measured most easily by a well-known SIFT (Skin Integrity Function Test) procedure measuring the electrical resistance of the skin after exposure to the material of interest and comparing this to the electrical resistance of untreated skin. […] SLS is used in shampoo and toothpaste formulations and is a suitable control because much is known about its irritating behaviour on human skin and eye tissue.

[3] = Flash point, Seta flash 3 closed cup tester; assay type: physicochemical; settings: Seta flash 3 closed cup tester model 30000-0
Protocol: The flammability of solvents is of concern to minimise risk during storage, transport and use. Typically the risk is assessed by measuring the flash point of the solvent. […] The measured value was 108° C.

[4] = solvent 1% w/w in distilled water, 2500 litres per hectare, first leaf stage plants, examined 1-13 days, duplicate
[5] = first leaf stage plants, examined 1-13 days, duplicate

Molecule	Observed damage with solvent [1, 4]	Observed damage with solvent and Tween 20 [1, 5]	other results
CC(O)C(=O)NCc1ccccc1 (stereo not drawn) [N-benzyl Lactamide]	None	None	
CCN(CCO)C(=O)C(C)O (stereo not drawn) [N-ethyl-N-2-hydroxyethyl lactamide]	None	None	% cyproconazole in solution [2]: 18.2% w/w; EC50 (48 hours) (daphnia): >100 µg/mL
CC(O)C(=O)NN1CCOCC1 (stereo not drawn) [N-morpholinyl lactamide]	None	None	EC50 (daphnia): > 100 µg/mL
CCCN(C)C(=O)C(C)O (stereo not drawn) [N-methyl-N-propyl lactamide]	None	None	% cyproconazole in solution [2]: 27.3% w/w; EC50 (48 hours) (daphnia): >100 µg/mL
CC(C)NC(=O)C(C)O (stereo not drawn) [N-isopropyl Lactamide]	None	None	
CCNC(=O)C(C)O (stereo not drawn) [N-ethyl lactamide]	None	None	
C=CCNC(=O)C(C)O (stereo not drawn) [N-allyl lactamide]	None	None	EC50 (daphnia): > 100 µg/mL
CCCCCCCCCCCCOS(=O)(=O)[O-].[Na+] [SLS, sodium lauryl sulphate]			Electrical resistivity (skin; 0.5% w/w aqueous solution, Table 2, untreated control 8.00): 2.03 kilo ohms; Electrical resistivity (skin; 1.0% solution, Table 2, untreated control 8.00): 1.84 kilo ohms; Electrical resistivity (skin; 10.0% solution, Table 2, untreated control 8.00): 0.91 kilo ohms; Electrical resistivity (skin; 10% w/w solution, skin post-treatment, mean of five measurements, untreated control 8.00): 0.91 kilo ohms
CC(C)CC(C)NC(=O)C(C)O (stereo not drawn) [N-1,3-dimethyl butyl lactamide]	None	None	
CC(C)CCC(C)NC(=O)C(C)O (stereo not drawn) [N-1,4-dimethylpentyl lactamide]			% cyproconazole in solution [2]: 10.5% w/w
CCCCN(C)C(=O)C(C)O (stereo not drawn) [N-methyl-N-butyl lactamide]	None	None	% cyproconazole in solution [2]: 33.0% w/w; EC50 (48 hours) (daphnia): >100 µg/mL
CCCCC(CC)CNC(=O)C(C)O (stereo not drawn) [N-(2-ethylhexyl) lactamide]			EC50 (daphnia): > 100 µg/mL
CCC(C)NC(=O)C(C)O (stereo not drawn) [N-sec-butyl lactamide]	None	None	
N-1-hyroxyethylbutyl lactamide	None	None	
CC(O)C(=O)NCCO (stereo not drawn) [N-2-hydroxyethyl lactamide]			Observed damage with solvent ([1]; in vivo): None
CCC(CO)NC(=O)C(C)O (stereo not drawn) [N-1-ethyl-2-hydroxyethyl lactamide]		None	
CC(O)C(=O)N(C)C (stereo not drawn) [dimethyl lactamide, N,N-dimethyl lactamide]			Electrical resistivity (skin; 1 % w/w): 8.04 kilo ohms; Electrical resistivity (skin; 10 % w/w): 7.72 kilo ohms; flash point [3]: 108 °C
CC(C)CNC(=O)C(C)O (stereo not drawn) [N-isobutyl lactamide]	None	None	
N-2-hydroxyethyl piperidinyl lactamide	None	None	% cyproconazole in solution [2]: 19.3% w/w; EC50 (48 hours) (daphnia): >100 µg/mL
CC(O)C(=O)NCCCN1CCOCC1 (stereo not drawn) [N-propyl morpholynyl lactamide]	None	None	
CC(O)C(=O)N(CCO)Cc1ccccc1 (stereo not drawn) [N-hydroxyethyl-N-benzyl lactamide]	None	None	% cyproconazole in solution [2]: 25.0% w/w; EC50 (48 hours) (daphnia): >100 µg/mL
CCN(CC)CCCNC(=O)C(C)O (stereo not drawn) [3-diethylamino propyl lactamide]	None		
CC(O)C(=O)NN1CCCC1 (stereo not drawn) [N-pyrrolidinyl lactamide]	None	None	
CCC(CC)NC(=O)C(C)O (stereo not drawn) [N-(1-ethylpropyl) lactamide]			EC50 (daphnia): > 100 µg/mL
